According to patent US10730889B2, “Amido spirocyclic amide and sulfonamide derivatives” (Forma TM, LLC, priority 2012, dated 2020):

Test system: A2780 cells
Assay: In-vitro cell proliferation assay (SRB, 72 hours)
Type: cell-based
Settings: Homo sapiens, A2780, 72 h, A2780 cells, 72 hours, SRB; read-out: Cell Proliferation (IC50)
Description: Assay 2: In-Vitro Cell Proliferation Assay
Assay Method. […] The compounds were then further diluted to 10× final concentration in culture media, whereupon 20 μL of each dilution was added to the plated cells with controls (e.g. DMSO and blank) to make a final volume of 200 μL. The final DMSO concentration in each well was 0.1%. The plates were then incubated for 72 hours at 37° C. in a 5% CO2 incubator. The number of viable cells was then assessed using sulforhodamine B (SRB) assay. Cells were fixed at 4° C. for 1 hour with the addition of 50 μL 30% trichloroacetic acid (TCA) to make a final concentration of 6% TCA. The plates were washed four times with H2O and allowed to dry for at least 1 hour, whereupon 100 μL of a 4% SRB in 1% acetic acid solution was added to each well and incubated at room temperature for at least 30 min. The plates were then washed three times with 1% acetic acid, dried, and treated with 100 μL of 10 mM Tris-Base solution. The plates were then read in a microplate reader at an absorbance of 570 nm. Background was generated on a separate plate with media only.
Determination of IC50 Values. First, the signals from the background plate were averaged, then the background was subtracted from the test plates.

Row | Compound | IC50 [µM]
1 | O=C(NCC1CC12CCN(C(=O)CC1CCS(=O)(=O)C1)CC2)c1cc2ccncc2o1 (stereo not drawn) [Example 80, N-[[6-[2-(1,1-dioxothiolan-3-yl)acetyl]-6-azaspiro[2.5]octan-2-yl]methyl]furo[2,3-c]pyridine-2-carboxamide] | 1.34
2 | O=C(NCC1CC12CCN(C(=O)Cn1ccc(=O)[nH]c1=O)CC2)c1cc2ccncc2o1 (stereo not drawn) [Example 81, N-[[6-[2-(2,4-dioxopyrimidin-1-yl)acetyl]-6-azaspiro[2.5]octan-2-yl]methyl]furo[2,3-c]pyridine-2-carboxamide] | 2
3 | CC(=O)N1CCC(C(=O)N2CCC3(CC2)CC3CNC(=O)c2cc3ccncc3o2)CC1 (stereo not drawn) [Example 82, N-[[6-(1-acetylpiperidine-4-carbonyl)-6-azaspiro[2.5]octan-2-yl]methyl]furo[2,3-c]pyridine-2-carboxamide] | 0.71
4 | O=C(NCC1CC12CCN(C(=O)c1ccc(Cn3cnnn3)cc1)CC2)c1cc2ccncc2o1 (stereo not drawn) [Example 83, N-[[6-[4-(tetrazol-1-ylmethyl)benzoyl]-6-azaspiro[2.5]octan-2-yl]methyl]furo[2,3-c]pyridine-2-carboxamide] | 1.08
5 | CS(=O)(=O)Nc1ccc(C(=O)N2CCC3(CC2)CC3CNC(=O)c2cc3ccncc3o2)cc1 (stereo not drawn) [Example 84, N-[[6-[4-(methanesulfonamido)benzoyl]-6-azaspiro[2.5]octan-2-yl]methyl]furo[2,3-c]pyridine-2-carboxamide] | 0.185
6 | O=C(NCC1CC12CCN(C(=O)c1ccc(N3CCS(=O)(=O)CC3)cc1)CC2)c1cc2ccncc2o1 (stereo not drawn) [Example 85, N-[[6-[4-(1,1-dioxo-1,4-thiazinan-4-yl)benzoyl]-6-azaspiro[2.5]octan-2-yl)methyl]furo[2,3-c]pyridine-2-carboxamide] | 0.0142
7 | CN1CCN(Cc2ccc(C(=O)N3CCC4(CC3)CC4CNC(=O)c3cc4ccncc4o3)cc2)CC1 (stereo not drawn) [Example 86, N-[[6-[4-[(4-methylpiperazin-1-yl)methyl]benzoyl]-6-azaspiro[2.5]octan-2-yl]methyl]furo[2,3-c]pyridine-2-carboxamide] | 0.00453
8 | CN1CCN(Cc2ccccc2C(=O)N2CCC3(CC2)CC3CNC(=O)c2cc3ccncc3o2)CC1 (stereo not drawn) [Example 87, N-[[6-[2-[(4-methylpiperazin-1-yl)methyl]benzoyl]-6-azaspiro[2.5]octan-2-yl]methyl]furo[2,3-c]pyridine-2-carboxamide] | 2
9 | CN1CCN(Cc2cccc(C(=O)N3CCC4(CC3)CC4CNC(=O)c3cc4ccncc4o3)c2)CC1 (stereo not drawn) [Example 88, N-[[6-[3-[(4-methylpiperazin-1-yl)methyl]benzoyl]-6-azaspiro[2.5]octan-2-yl]methyl]furo[2,3-c]pyridine-2-carboxamide] | 0.00977
10 | CN1CCN(CCC(=O)N2CCC3(CC2)CC3CNC(=O)c2cc3ccncc3o2)CC1 (stereo not drawn) [Example 89, N-[[6-[3-(4-methylpiperazin-1-yl)propanoyl]-6-azaspiro[2.5]octan-2-yl]methyl]furo[2,3-c]pyridine-2-carboxamide] | 0.116
11 | CC(C)N1CC(C(=O)N2CCC3(CC2)CC3CNC(=O)c2cc3ccncc3o2)CC1=O (stereo not drawn) [Example 90, N-[[6-(1-isopropyl-5-oxo-pyrrolidine-3-carbonyl)-6-azaspiro[2.5]octan-2-yl)methyl]furo[2,3-c]pyridine-2-carboxamide] | 0.183
12 | O=C1CN(CC(=O)N2CCC3(CC2)CC3CNC(=O)c2cc3ccncc3o2)CCN1 (stereo not drawn) [Example 91, N-[[6-[2-(3-oxopiperazin-1-yl)acetyl]-6-azaspiro[2.5]octan-2-yl]methyl]furo[2,3-c]pyridine-2-carboxamide] | 2
13 | CS(=O)(=O)c1cccc(C(=O)N2CCC3(CC2)CC3CNC(=O)c2cc3ccncc3o2)c1 (stereo not drawn) [Example 92, N-[[6-(3-methylsulfonylbenzoyl)-6-azaspiro[2.5]octan-2-yl]methyl]furo[2,3-c]pyridine-2-carboxamide] | 0.152
14 | CS(=O)(=O)c1ccc(C(=O)N2CCC3(CC2)CC3CNC(=O)c2cc3ccncc3o2)cc1 (stereo not drawn) [Example 93, N-[[6-(4-methylsulfonylbenzoyl)-6-azaspiro[2.5]octan-2-yl]methyl]furo[2,3-c]pyridine-2-carboxamide] | 0.878
15 | NC(=O)Nc1ccc(C(=O)N2CCC3(CC2)CC3CNC(=O)c2cc3ccncc3o2)cc1 (stereo not drawn) [Example 94, N-[[6-(4-ureidobenzoyl)-6-azaspiro[2.5]octan-2-yl]methyl]furo[2,3-c]pyridine-2-carboxamide] | 0.437
16 | CC(=O)N1CCN(CC(=O)N2CCC3(CC2)CC3CNC(=O)c2cc3ccncc3o2)CC1 (stereo not drawn) [Example 95, N-[[6-[2-(4-acetylpiperazin-1-yl)acetyl]-6-azaspiro[2.5]octan-2-yl]methyl]furo[2,3-c]pyridine-2-carboxamide] | 2
17 | Cc1nnnn1Cc1ccc(C(=O)N2CCC3(CC2)CC3CNC(=O)c2cc3ccncc3o2)cc1 (stereo not drawn) [Example 96, N-[[6-[4-[(5-methyltetrazol-1-yl]methyl]benzoyl]-6-azaspiro[2.5]octan-2-yl]methyl]furo[2,3-c]pyridine-2-carboxamide] | 0.711
18 | O=C(NCC1CC12CCN(C(=O)c1ccncc1)CC2)c1cc2ccncc2o1 (stereo not drawn) [Example 97, N-[[6-(pyridine-4-carbonyl)-6-azaspiro[2.5]octan-2-yl]methyl]furo[2,3-c]pyridine-2-carboxamide] | 2

Row | Compound | IC50 [µM]
19 | O=C(NCC1CC12CCN(C(=O)c1ccccn1)CC2)c1cc2ccncc2o1 (stereo not drawn) [Example 98, N-[[6-(pyridine-2-carbonyl)-6-azaspiro[2.5]octan-2-yl]methyl]furo[2,3-c]pyridine-2-carboxamide] | 2
20 | O=C(NCC1CC12CCN(C(=O)c1cocn1)CC2)c1cc2ccncc2o1 (stereo not drawn) [Example 99, N-[[6-(oxazole-4-carbonyl)-6-azaspiro[2.5]octan-2-yl]methyl]furo[2,3-c]pyridine-2-carboxamide] | 2
21 | O=C(NCC1CC12CCN(C(=O)c1nc[nH]n1)CC2)c1cc2ccncc2o1 (stereo not drawn) [Example 100, N-[[6-(1H-1,2,4-triazole-3-carbonyl)-6-azaspiro[2.5]octan-2-yl]methyl]furo[2,3-c]pyridine-2-carboxamide] | 2
22 | O=C(NCC1CC12CCN(C(=O)c1c[nH]cn1)CC2)c1cc2ccncc2o1 (stereo not drawn) [Example 101, N-[[6-(1H-imidazole-4-carbonyl)-6-azaspiro[2.5]octan-2-yl]methyl]furo[2,3-c]pyridine-2-carboxamide] | 2
23 | O=C(NCC1CC12CCN(C(=O)c1ccncn1)CC2)c1cc2ccncc2o1 (stereo not drawn) [Example 102, N-[[6-(pyrimidine-4-carbonyl)-6-azaspiro[2.5]octan-2-yl]methyl]furo[2,3-c]pyridine-2-carboxamide] | 2
24 | O=C(NCC1CC12CCN(C(=O)c1cccnc1)CC2)c1cc2ccncc2o1 (stereo not drawn) [Example 103, N-[[6-(pyridine-3-carbonyl)-6-azaspiro[2.5]octan-2-yl]methyl]furo[2,3-c]pyridine-2-carboxamide] | 2
25 | O=C(NCC1CC12CCN(C(=O)c1cc[nH]n1)CC2)c1cc2ccncc2o1 (stereo not drawn) [Example 104, N-[[6-(1H-pyrazole-3-carbonyl)-6-azaspiro[2.5]octan-2-yl]methyl]furo[2,3-c]pyridine-2-carboxamide] | 2
26 | Cn1cnc(C(=O)N2CCC3(CC2)CC3CNC(=O)c2cc3ccncc3o2)c1 (stereo not drawn) [Example 105, N-[[6-(1-methylimidazole-4-carbonyl)-6-azaspiro[2.5]octan-2-yl]methyl]furo[2,3-c]pyridine-2-carboxamide] | 0.755
27 | Cc1n[nH]cc1C(=O)N1CCC2(CC1)CC2CNC(=O)c1cc2ccncc2o1 (stereo not drawn) [Example 106, N-[[6-(3-methyl-1H-pyrazole-4-carbonyl)-6-azaspiro[2.5]octan-2-yl]methyl]furo[2,3-c]pyridine-2-carboxamide] | 0.743
28 | Cn1nccc1C(=O)N1CCC2(CC1)CC2CNC(=O)c1cc2ccncc2o1 (stereo not drawn) [Example 107, N-[[6-(2-methylpyrazole-3-carbonyl)-6-azaspiro[2.5]octan-2-yl]methyl]furo[2,3-c]pyridine-2-carboxamide] | 2
29 | Cc1cc(C(=O)N2CCC3(CC2)CC3CNC(=O)c2cc3ccncc3o2)n[nH]1 (stereo not drawn) [Example 108, N-[[6-(5-methyl-1H-pyrazole-3-carbonyl)-6-azaspiro[2.5]octan-2-yl]methyl]furo[2,3-c]pyridine-2-carboxamide] | 0.449
30 | Cn1ccc(C(=O)N2CCC3(CC2)CC3CNC(=O)c2cc3ccncc3o2)n1 (stereo not drawn) [Example 109, N-[[6-(1-methylpyrazole-3-carbonyl)-6-azaspiro[2.5]octan-2-yl]methyl]furo[2,3-c]pyridine-2-carboxamide] | 0.299
31 | O=C(NCC1CC12CCN(C(=O)c1cccnn1)CC2)c1cc2ccncc2o1 (stereo not drawn) [Example 110, N-[[6-(pyridazine-3-carbonyl)-6-azaspiro[2.5]octan-2-yl]methyl]furo[2,3-c]pyridine-2-carboxamide] | 2
32 | O=C(NCC1CC12CCN(C(=O)c1cnccn1)CC2)c1cc2ccncc2o1 (stereo not drawn) [Example 112, N-[[6-(pyrazine-2-carbonyl)-6-azaspiro[2.5]octan-2-yl]methyl]furo[2,3-c]pyridine-2-carboxamide] | 2
33 | O=C(NCC1CC12CCN(C(=O)c1ccnnc1)CC2)c1cc2ccncc2o1 (stereo not drawn) [Example 113, N-[[6-(pyridazine-4-carbonyl)-6-azaspiro[2.5]octan-2-yl]methyl]furo[2,3-c]pyridine-2-carboxamide] | 2
34 | Cn1cc(C(=O)N2CCC3(CC2)CC3CNC(=O)c2cc3ccncc3o2)cn1 (stereo not drawn) [Example 114, N-[[6-(1-methylpyrazole-4-carbonyl)-6-azaspiro[2.5]octan-2-yl]methyl]furo[2,3-c]pyridine-2-carboxamide] | 2
35 | Cc1cc(C(=O)N2CCC3(CC2)CC3CNC(=O)c2cc3ccncc3o2)nn1C (stereo not drawn) [Example 115, N-[[6-(1,5-dimethylpyrazole-3-carbonyl)-6-azaspiro[2.5]octan-2-yl]methyl]furo[2,3-c]pyridine-2-carboxamide] | 0.0376
36 | Cc1cc(C(=O)N2CCC3(CC2)CC3CNC(=O)c2cc3ccncc3o2)no1 (stereo not drawn) [Example 117, N-[[6-(5-methylisoxazole-3-carbonyl)-6-azaspiro[2.5]octan-2-yl]methyl]furo[2,3-c]pyridine-2-carboxamide] | 0.752
